Assay results from patent US20180263975A1, “Methods Of Treating Motor And Movement Disorders And Side Effects Thereof Associated with Parkinson's Disease Treatments” (AMARANTUS BIOSCIENCE HOLDINGS, INC., priority 2015, published 2018).
“Also recorded” adds a separate entry of the source.

Tests used:
5-HT1d receptor = conditions: Sijbesma 1990; cited from earlier work
dopamine receptors = conditions: cited from earlier work
[1] = system: Parkinson's patients with L-DOPA induced dyskinesias; assay: Safety and tolerability in the dose finding study; type: in vivo, human; conditions: single oral doses 2.5, 5, 7.5 mg in PD patients
Text: This study also assessed the safety and tolerability of eltoprazine in adults with Parkinson's Disease using the following measures: a) population mean values for the change in dyskinesia ratings between the placebo and screening baseline values and any of the eltoprazine dosages used, calculated as the peak-effect on CDRS of any study medication; b) population mean values for the change in dyskinesia ratings between the placebo and screening baseline values and any of the eltoprazine dosages used, calculated as the AuC on Rush DRS of any study medication; c) any changes in the UPDRS-III total score; d) any change in the diary data set, between the baseline and placebo and any of the three study medication tests; e) any deterioration of the HADS scores after study medication compared with placebo; f) any development of depression over the course of the study period, determined by the Montgomery Asberg Depression Rating Scale (MADRS) and clinical judgment; g) comparison between the effects on Rush Dyskinesia Rating Scale (DRS) and Clinical Dyskinesia Rating Scale (CDRS) Area under the Curve (AuC) and peak of dose effects for the three study medication dosages.
After screening, each patient participated in the study for approximately 6-10 weeks. The duration of the study was about 30 weeks. […]

[2] = system: Parkinson's patients with L-DOPA induced dyskinesias; assay: Clinical Dyskinesia Rating Scale (CDRS) rating of L-DOPA induced dyskinesia after a levodopa challenge dose; type: in vivo, human
Text: (§1) This example describes a multicenter, randomized, double-blind, placebo-controlled, dose finding study of oral eltoprazine in Parkinson's patients with L-DOPA induced dyskinesias, in a levodopa challenge-dose setting in Parkinson's Disease. A total of 22 patients participated in the study, out of which 18 patients fulfilled the protocol in terms of eligibility, interventions, and outcome assessment.
During the first visit, patients underwent screening for inclusion/exclusion criteria and safety assessments. Symptoms of parkinsonism, depression, and anxiety were assessed, and screening for significant L-DOPA dyskinesias were conducted using a challenge dose (150%) of L-DOPA. Subjects who were taking a prohibited medication were required to complete a washout period of appropriate length, as determined by the investigator. […]
(§2) During each of five visits, and after a two-hour fast, each patient received a challenge dosage (150%—up to a maximum of 250 mg) of levodopa. […] The patients were periodically recorded for 180 minutes after treatment, and the videos were evaluated in a blinded manner. […]
(§3) Filming occurred 30 minutes prior to, and every 30 minutes up to 180 minutes after a challenge test of L-DOPA and study medication. […] Videotaped records of each sequence were assessed by separate individual qualified raters at both of the two clinical centers. […]

5-HT1a/5-HT1b receptor = conditions: cited from earlier work
[3] = Daytime plasma concentration of eltoprazine under dosing regimens
[4] = system: Parkinson's patients with L-DOPA induced dyskinesias; assay: Rush Dyskinesia Rating Scale AUC after a levodopa challenge dose; type: in vivo, human; conditions: 5 mg dose
Text: as §1, with “assessment. […]” for “assessment.”
During each of five visits, and after a two-hour fast, each patient received a challenge dosage (150%—up to a maximum of 250 mg) of levodopa. […] The patients were periodically recorded for 180 minutes after treatment, and the videos were evaluated in a blinded manner.
The term “Rush Dyskinesia Rating Scale” and “Rush DRS” refer to an observer-based rating scale based on fixed movements. The numerical parts of the Rush DRS are recorded separately from the descriptive parts, as described by Goetz et al., in Movement Disorders, Vol. 9, No. 4, 1994, 390-394.
as §3

[5] = system: Parkinson's patients with L-DOPA induced dyskinesias; assay: UPDRS-III rating of parkinsonian symptoms (levodopa efficacy) after a levodopa challenge dose; type: in vivo, human; conditions: 5 mg and 7.5 mg doses
Text: as §1, §2
Filming occurred 30 minutes prior to, and every 30 minutes up to 180 minutes after a challenge test of L-DOPA and study medication. […] Videotaped records of each sequence were assessed by separate individual qualified raters at both of the two clinical centers.
Analyses were done on both the intention-to-treat (ITT) and per protocol (PP) population, if applicable. The change between test sessions of the highest observed Unified Parkinson's Disease Rating Scale-III (UPDRS) within each session will be calculated between the randomized placebo test session and each active test session and will be analyzed with Wilcoxon Signed Rank test on the ITT population.

Compound: c1cc2c(c(N3CCNCC3)c1)OCCO2 [eltoprazine, 1-(2,3-dihydro-1,4-benzodioxin-5-yl) piperazine]
- affinity for the 5-HT1d receptor compared with serotonin (5-HT1d receptor): lower affinity
- affinity for dopamine receptors (dopamine receptors): no relevant affinity
- serious adverse events [1]: no serious adverse events
- tolerability [1]: well tolerated
- reduction of LID measured by the CDRS scale, compared to placebo ([2]; 5 mg single oral dose with 150% L-DOPA challenge, p=0.0007): statistically significantly reduced LID
- reduction of LID measured by the CDRS scale, compared to placebo ([2]; 7.5 mg single oral dose with 150% L-DOPA challenge, p=0.0467): statistically significantly reduced LID
- affinity for 5-HT1a versus 5-HT1b receptors, mixed agonist (5-HT1a/5-HT1b receptor; Schipper 1990): roughly equipotent affinity
- receptor selectivity of binding profile (5-HT1a/5-HT1b receptor; with respect to all receptors other than 5-HT1, Sijbesma 1990): selective 5-HT1 ligand
- daytime plasma concentration profile (FIG. 4) ([3]; 5 mg and 7.5 mg b.d. at 4 hour intervals (2.5, 5, 7.5, 10 mg compared)): optimizes daytime plasma concentration from 10 AM to 8 PM
- daytime plasma concentration profile (FIG. 3) ([3]; 7.5 mg twice daily at 4 or 6 hourly intervals (4, 6, 8, 12 h compared)): optimizes daytime plasma concentration from 10 AM to 8 PM
- plasma concentration of drug ([3]; dose of 5 mg): approximately 10 ng/ml
- plasma concentration of drug ([3]; dose of 7.5 mg): approximately 17 ng/ml
- plasma concentration profile (FIG. 5) ([3]; three times daily 2.5, 5, 7.5 mg at 4 hour intervals): achieve maximal plasma concentrations in the late afternoon/evening period into the night time
- reduction of LID measured by the Rush Scale AUC [4]: reduced LID in PD patients statistically significantly
- effect on L-DOPA efficacy measured by the UPDRS score (UPDRS-III) [5]: did not affect L-DOPA efficacy; also recorded: no significant change
